Test results: patent US20150119245A1, “Method for Producing Shelf Stable Hypochlorous Acid Solutions” (priority 2013, published 2015)

Assays:
[1] = Available chlorine present as hypochlorous acid as a function of pH (FIG. 2); type: physicochemical
Source text: The concentration of hypochlorous acid solutions (HOCl) are usually reported as free available chlorine (FAC) in parts per million (ppm). Hypochlorous acid (HOCl) is in equilibrium with hypochlorite ion (^−OCl) and Cl2 and the extent of the equilibrium is controlled by the pH of the solution, as shown in FIG. 2. Therefore, both FAC and pH need to be known to understand the amount of chlorine present as hypochlorous acid.
Thus at pH 5, a 100 ppm FAC solution will have 100 ppm chlorine present as HOCl.

[2] = Window cleaner streak test, sprayed on glass and dried without wiping; settings: test solution as used in streak test

Row | Compound | FAC present as hypochlorous acid ([1]; pH 7.5) [%] | available chlorine present as hypochlorous acid ([1]; pH of 3) | available chlorine present as HOCl ([1]; pH range of 4 to 5.6) | pH [2]
1 | OCl [hypochlorous acid] | 50 | about 90% | approximately 100% | 
2 | [Na+].[OH-] [NaOH, sodium hydroxide] |  |  |  | 12.2
